Tests used:
[1] = test system: Mycobacterium tuberculosis Erdman (autoluminescent); assay: GRinf, maximum normalised growth rate inhibition (three-drug combination) (unitless (-1 to 1)); higher = less effect (negative = killing)
Method: (§1)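 DiaMOND equipotent three-drug combination dose responses (10 doses, 1.5- or 2-fold spacing, centred on IC90) against autoluminescent M. tuberculosis Erdman in 8 in vitro models. Read-out is OD600, or luminescence for the intracellular and dormancy models, normalised to untreated wells. Hill-fit Einf, AUC25 and GRinf are potency metrics; FIC50 and FIC90 are total Loewe fractional inhibitory concentrations as log2 (negative = synergy).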

[2] = test system: Mycobacterium tuberculosis Erdman (autoluminescent); assay: total FIC50 (Loewe) at 50% inhibition, three-drug combination (log2); higher = more antagonistic
Method: as §1

[3] = test system: Mycobacterium tuberculosis Erdman (autoluminescent); assay: total FIC90 (Loewe) at 90% inhibition, three-drug combination (log2); higher = more antagonistic
Method: as §1

[4] = test system: Mycobacterium tuberculosis Erdman (autoluminescent); assay: Einf, fitted maximum growth inhibition of three-drug combination (fraction); higher = stronger maximal inhibition
Method: as §1

[5] = test system: Mycobacterium tuberculosis Erdman (autoluminescent); assay: AUC25, normalised area under dose response up to IC25 (three-drug combination) (fraction (0-1)); higher = more potent at low dose
Method: as §1

COc1nc2ccc(Br)cc2cc1[C@@H](c1ccccc1)[C@@](O)(CCN(C)C)c1cccc2ccccc12 [bedaquiline] + CC[C@@H](CO)NCCN[C@@H](CC)CO [ethambutol] + NNC(=O)c1ccncc1 [isoniazid]
Conditions | AUC25, [5] | Einf, [4] | GRinf, [1] | total FIC50, [2] | total FIC90, [3]
in vitro model: acidic pH 5.7, time point: constant (~7 days, model-specific) | 0.112 | 0.858 | -0.682 | 0.0458 | –
in vitro model: acidic pH 5.7, time point: terminal (~4-5 doublings, model-specific) | 0.0484 | 0.953 | -0.339 | 0.537 | -0.855
in vitro model: intracellular J774, time point: constant = terminal | – | 0.988 | -0.401 | – | -0.307

Conditions | AUC25, [5] | Einf, [4] | GRinf, [1] | total FIC50, [2] | total FIC90, [3]
in vitro model: butyrate, time point: constant (~7 days, model-specific) | 0.0535 | 0.943 | -0.0949 | 0.537 | –
in vitro model: butyrate, time point: terminal (~4-5 doublings, model-specific) | 0.0425 | 0.975 | -0.105 | 0.472 | -0.153
in vitro model: cholesterol 0.05 mM, time point: constant (~7 days, model-specific) | 0.0741 | 0.695 | -0.191 | 0.858 | –
in vitro model: cholesterol 0.05 mM, time point: terminal (~4-5 doublings, model-specific) | 0.0839 | 0.891 | -0.205 | 1.12 | 0.995
in vitro model: cholesterol-high 0.2 mM, time point: constant (~7 days, model-specific) | 0.026 | 0.998 | -0.751 | 1.05 | –
in vitro model: cholesterol-high 0.2 mM, time point: terminal (~4-5 doublings, model-specific) | 0.0384 | 1 | -0.702 | 1.09 | 0.96
in vitro model: dormancy (butyrate + nitrate, low O2), time point: constant (~7 days, model-specific) | 0.121 | 0.849 | 0.491 | 1.04 | –
in vitro model: dormancy (butyrate + nitrate, low O2), time point: terminal (~4-5 doublings, model-specific) | 0.0982 | 0.987 | -0.0322 | 0.301 | 0.198
in vitro model: standard 7H9 glycerol, time point: constant = terminal | 0.0658 | 0.957 | -0.0846 | 0.398 | –
in vitro model: valerate, time point: constant (~7 days, model-specific) | 0.116 | 0.912 | -0.0812 | 0.656 | –
in vitro model: valerate, time point: terminal (~4-5 doublings, model-specific) | 0.0717 | 0.954 | -0.0498 | 0.744 | 0.58

CC(=O)NC[C@H]1CN(c2ccc(N3CCOCC3)c(F)c2)C(=O)O1 [linezolid] + O=[N+]([O-])c1cn2c(n1)OC[C@@H](OCc1ccc(OC(F)(F)F)cc1)C2 [pretomanid] + CO[C@H]1/C=C/O[C@@]2(C)Oc3c(C)c(O)c4c(O)c(c(/C=N/N5CCN(C)CC5)c(O)c4c3C2=O)NC(=O)/C(C)=C\C=C\[C@H](C)[C@H](O)[C@@H](C)[C@@H](O)[C@@H](C)[C@H](OC(C)=O)[C@@H]1C [rifampicin]
Conditions | AUC25, [5] | Einf, [4] | GRinf, [1] | total FIC50, [2] | total FIC90, [3]
in vitro model: acidic pH 5.7, time point: constant (~7 days, model-specific) | 0.0793 | 0.893 | -0.221 | 0.745 | –
in vitro model: acidic pH 5.7, time point: terminal (~4-5 doublings, model-specific) | 0.0641 | 0.987 | -0.265 | 0.832 | 0.521
in vitro model: intracellular J774, time point: constant = terminal | – | 0.98 | -0.287 | – | 0.288

Conditions | AUC25, [5] | Einf, [4] | GRinf, [1] | total FIC50, [2] | total FIC90, [3]
in vitro model: butyrate, time point: constant (~7 days, model-specific) | 0.0869 | 0.896 | 0.0695 | 0.127 | 0.148
in vitro model: butyrate, time point: terminal (~4-5 doublings, model-specific) | 0.0669 | 0.948 | 0.0615 | 0.00331 | -0.305
in vitro model: cholesterol 0.05 mM, time point: constant (~7 days, model-specific) | 0.128 | 0.66 | -0.0769 | 0.0451 | –
in vitro model: cholesterol 0.05 mM, time point: terminal (~4-5 doublings, model-specific) | 0.127 | 0.895 | -0.203 | 0.545 | -0.354
in vitro model: cholesterol-high 0.2 mM, time point: constant (~7 days, model-specific) | 0.0921 | 0.885 | -0.118 | 0.326 | 1.11
in vitro model: cholesterol-high 0.2 mM, time point: terminal (~4-5 doublings, model-specific) | 0.0881 | 0.972 | -0.505 | 0.645 | 0.499
in vitro model: dormancy (butyrate + nitrate, low O2), time point: constant (~7 days, model-specific) | 0.0572 | 0.911 | 0.214 | 0.855 | 0.28
in vitro model: dormancy (butyrate + nitrate, low O2), time point: terminal (~4-5 doublings, model-specific) | 0.0401 | 0.97 | -0.0505 | 0.25 | 0.29
in vitro model: standard 7H9 glycerol, time point: constant = terminal | 0.0674 | 0.915 | 0.0995 | 0.0346 | -0.714
in vitro model: valerate, time point: constant (~7 days, model-specific) | 0.1 | 0.89 | -0.015 | 0.394 | –
in vitro model: valerate, time point: terminal (~4-5 doublings, model-specific) | 0.0505 | 0.925 | 0.0379 | 0.622 | 0.278

— the supplement of paper PMC8617591
